{
  "source": "patent US8946238B2",
  "about": "“Pyrazolo[1,5-A]pyrimidines as antiviral agents” (Gilead Sciences, Inc., priority 2011, dated 2015)",
  "data": [
    {"tested_on": "RSV strain A2", "assay": "RSV antiviral cytoprotection assay in Hep2 cells (RSV-induced cytopathic effect, Cell TiterGlo)", "type": "cell-based, Respiratory Syncytial Virus (RSV)", "conditions": "0.5 μM compound; RSV A2-infected Hep2 cells; % inhibition calculated from 4-parameter dose response curve, normalized to 0% and 100%; 0.5 µM", "in_short": "(§1)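 Hep2 cells were infected with RSV A2 and exposed to 3-fold compound dilutions, either 3,000 cells/well for 4 days (96-well) or 2000 cells/well at MOI 1:1000 for 5 days at 37° C. (384-well). Cytopathic effect was read by Cell TiterGlo luminescence, and EC50 or normalized % inhibition came from curve fits against infected and uninfected controls.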", "units": {"Percent inhibition at 0.5 μM": "%"}, "values": [
      {"compound": "Cc1cccnc1C(=O)N1CCCC[C@H]1c1cc2nc(N3C[C@@H](C#N)[C@@H](O)C3)c(C)cn2n1", "note": "[Compound 179]", "Percent inhibition at 0.5 μM": 93}
    ]},
    {"tested_on": "RSV strain A2", "assay": "RSV antiviral cytoprotection assay in Hep2 cells (RSV-induced cytopathic effect, Cell TiterGlo)", "type": "cell-based, Respiratory Syncytial Virus (RSV)", "conditions": "human respiratory syncytial virus, HEp-2, 0.5 μM compound; RSV A2-infected Hep2 cells; % inhibition calculated from 4-parameter dose response curve, normalized to 0% and 100%; read-out: Percent inhibition at 0.5 μM", "in_short": "as §1", "units": {"inhibition at 0.5 µM": "%"}, "values": [
      {"compound": "COc1ccsc1C(=O)N1CCCC[C@H]1c1cc2nc(N3C[C@@H](C#N)[C@@H](O)C3)c(C)cn2n1", "note": "[Compound 178]", "inhibition at 0.5 µM": 100},
      {"compound": "Cc1cn2nc([C@@H]3CCCCN3C(=O)c3ccccc3-c3ccccc3)cc2nc1N1C[C@@H](C#N)[C@@H](O)C1", "note": "[Compound 180]", "inhibition at 0.5 µM": 94},
      {"compound": "Cc1cn2nc([C@@H]3CCCCN3C(=O)c3ccsc3)cc2nc1N1C[C@@H](C#N)[C@@H](O)C1", "note": "[Compound 181]", "inhibition at 0.5 µM": 83},
      {"compound": "Cc1cn2nc([C@@H]3CCCCN3C(=O)c3c(Cl)c(C)nn3C)cc2nc1N1C[C@@H](C#N)[C@@H](O)C1", "note": "[Compound 182]", "inhibition at 0.5 µM": 93},
      {"compound": "Cc1cn2nc([C@@H]3CCCCN3C(=O)c3csc4c3CCCC4)cc2nc1N1C[C@@H](C#N)[C@@H](O)C1", "note": "[Compound 183]", "inhibition at 0.5 µM": 100},
      {"compound": "Cc1cn2nc([C@@H]3CCCCN3C(=O)c3ccccc3C(F)(F)F)cc2nc1N1C[C@@H](C#N)[C@@H](O)C1", "note": "[Compound 184]", "inhibition at 0.5 µM": 100},
      {"compound": "Cc1cn2nc([C@@H]3CCCCN3C(=O)c3cccc4c3ccn4C)cc2nc1N1C[C@@H](C#N)[C@@H](O)C1", "note": "[Compound 185]", "inhibition at 0.5 µM": 100},
      {"compound": "Cc1cn2nc([C@@H]3CCCCN3C(=O)c3cc(F)ccc3Cl)cc2nc1N1C[C@@H](C#N)[C@@H](O)C1", "note": "[Compound 186]", "inhibition at 0.5 µM": 100},
      {"compound": "Cc1cn2nc([C@@H]3CCCCN3C(=O)c3nn(C)c4ccccc34)cc2nc1N1C[C@@H](C#N)[C@@H](O)C1", "note": "[Compound 187]", "inhibition at 0.5 µM": 100},
      {"compound": "COc1ccc(Cl)c(C(=O)N2CCCC[C@H]2c2cc3nc(N4C[C@@H](C#N)[C@@H](O)C4)c(C)cn3n2)c1", "note": "[Compound 188]", "inhibition at 0.5 µM": 100},
      {"compound": "Cc1cn2nc([C@@H]3CCCCN3C(=O)c3ccnn3CC(F)(F)F)cc2nc1N1C[C@@H](C#N)[C@@H](O)C1", "note": "[Compound 189]", "inhibition at 0.5 µM": 89},
      {"compound": "Cc1cn2nc([C@@H]3CCCCN3C(=O)c3c(Cl)cnn3C(C)C)cc2nc1N1C[C@@H](C#N)[C@@H](O)C1", "note": "[Compound 190]", "inhibition at 0.5 µM": 100},
      {"compound": "Cc1cn2nc([C@@H]3CCCCN3C(=O)c3cc(Cl)ccc3NS(C)(=O)=O)cc2nc1N1C[C@@H](C#N)[C@@H](OP(=O)(O)O)C1", "note": "[Compound 192]", "inhibition at 0.5 µM": 100},
      {"compound": "Cc1ccnc(C(=O)N2CCCC[C@H]2c2cc3nc(N4CC(C#N)[C@@H](O)C4)c(C)cn3n2)c1", "note": "(stereo partly drawn) [Compound 196]", "inhibition at 0.5 µM": 96},
      {"compound": "Cc1ccc(N2CCCS2(=O)=O)c(C(=O)N2CCCC[C@H]2c2cc3nc(N4C[C@@H](C#N)[C@@H](O)C4)c(C)cn3n2)c1", "note": "[Compound 197]", "inhibition at 0.5 µM": 100},
      {"compound": "Cc1cn2nc([C@@H]3CCCCN3C(=O)c3cc(Br)ccc3NS(C)(=O)=O)cc2nc1N1C[C@@H](C#N)[C@@H](O)C1", "note": "[Compound 199]", "inhibition at 0.5 µM": 100},
      {"compound": "COc1ccc(Cl)cc1C(=O)N1CCCC[C@H]1c1cc2nc(N3C[C@@H](C#N)[C@@H](O)C3)c(C)cn2n1", "note": "[Compound 201]", "inhibition at 0.5 µM": 100},
      {"compound": "Cc1ccc(Cl)cc1C(=O)N1CCCC[C@H]1c1cc2nc(N3C[C@@H](C#N)[C@@H](O)C3)c(C)cn2n1", "note": "[Compound 202]", "inhibition at 0.5 µM": 100},
      {"compound": "CC(=O)Nc1ccc(C)cc1C(=O)N1CCCC[C@H]1c1cc2nc(N3CC(O)C(C#N)C3)c(C)cn2n1", "note": "(stereo partly drawn) [Compound 203]", "inhibition at 0.5 µM": 100},
      {"compound": "Cc1cn2nc([C@@H]3CCCCN3C(=O)c3cc(Cl)ccc3NS(C)(=O)=O)cc2nc1N1C[C@@H](C#N)[C@@H](OC(=O)[C@H](N)C(C)C)C1", "note": "[Compound 204]", "inhibition at 0.5 µM": 100},
      {"compound": "Cc1cn2nc([C@@H]3CCCCN3C(=O)c3cc(Cl)ccc3NS(C)(=O)=O)cc2nc1N1C[C@@H](C#N)[C@@H](OC(=O)[C@H]2CCCN2)C1", "note": "[Compound 205]", "inhibition at 0.5 µM": 100},
      {"compound": "Cc1cn2nc([C@@H]3CCCCN3C(=O)c3cc(Cl)ccc3NS(C)(=O)=O)cc2nc1N1C[C@@H](C#N)[C@@H](OC(=O)CN)C1", "note": "[Compound 206]", "inhibition at 0.5 µM": 100},
      {"compound": "Cc1cn2nc([C@@H]3CCCCN3C(=O)c3cc(Cl)ccc3NS(C)(=O)=O)cc2nc1N1C[C@@H](C#N)[C@@H](OC(=O)CCC(=O)O)C1", "note": "[Compound 207]", "inhibition at 0.5 µM": 100},
      {"compound": "Cc1cn2nc([C@@H]3CCCCN3C(=O)c3cc(Cl)ccc3NS(C)(=O)=O)cc2nc1N1C[C@@H](C#N)[C@@H](OC(=O)c2cccnc2)C1", "note": "[Compound 208]", "inhibition at 0.5 µM": 100},
      {"compound": "Cc1cn2nc([C@@H]3CCCCN3C(=O)c3cc(Cl)ccc3NS(C)(=O)=O)cc2nc1N1C[C@@H](C#N)[C@@H](OC(=O)CCC(=O)NCCN2CCOCC2)C1", "note": "[Compound 209]", "inhibition at 0.5 µM": 100}
    ]},
    {"tested_on": "RSV strain A2", "assay": "RSV antiviral cytoprotection assay in Hep2 cells (RSV-induced cytopathic effect, Cell TiterGlo)", "type": "cell-based, Respiratory Syncytial Virus (RSV)", "conditions": "human respiratory syncytial virus, HEp-2, read-out: Percent inhibition at 0.5 μM", "in_short": "as §1", "units": {"inhibition at 0.5 µM": "%"}, "values": [
      {"compound": "Cc1ccc(NS(C)(=O)=O)c(C(=O)N2CCCC[C@H]2c2cc3nc(N4C[C@@H](C#N)[C@@H](O)C4)c(C)cn3n2)c1", "note": "[Compound 200]", "inhibition at 0.5 µM": 100}
    ]}
  ]
}
